Results: patent publication US20050032873A1, “3-Amino chroman and 2-amino tetralin derivatives” (Wyeth, priority 2003, published 2005)
Read-outs that look alike come from different tables or passages of the source.

Key:
5-HT1A receptor [1] = molecular target: T1, 5-HT1A receptor (Homo sapiens, UniProt P08908); assay: 5-HT1A receptor affinity: displacement of [3H] 8-OH-DPAT; format: binding; set-up: expressed in transfected cells; conditions: displacement of [3H] 8-OH-DPAT, CHO cells stably transfected with human 5-HT1A receptors
T1 sequence (P08908 1-422): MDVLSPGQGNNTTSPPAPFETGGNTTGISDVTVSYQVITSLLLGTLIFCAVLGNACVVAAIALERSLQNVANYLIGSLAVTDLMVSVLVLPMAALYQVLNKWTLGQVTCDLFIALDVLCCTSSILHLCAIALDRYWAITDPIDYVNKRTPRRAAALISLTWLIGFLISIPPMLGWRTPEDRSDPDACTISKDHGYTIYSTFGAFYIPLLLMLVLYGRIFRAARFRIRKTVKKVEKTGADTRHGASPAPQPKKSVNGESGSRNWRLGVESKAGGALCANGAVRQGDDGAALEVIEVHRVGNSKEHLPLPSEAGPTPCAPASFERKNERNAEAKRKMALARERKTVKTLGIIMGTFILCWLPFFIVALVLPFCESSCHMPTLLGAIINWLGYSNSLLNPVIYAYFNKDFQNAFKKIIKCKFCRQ

serotonin transporter = molecular target: T2, serotonin transporter (Rattus norvegicus, UniProt P31652); assay: 5-HT transporter affinity: displacement of 3H-paroxetine from male rat cortical membranes; format: binding; conditions: displacement of 3H-paroxetine, male rat cortical membranes
T2 construct: displace ^3H-paroxetine from male rat cortical membranes; from tissue; host or cells: male rat cortical membranes
T2 sequence (P31652 whole entry): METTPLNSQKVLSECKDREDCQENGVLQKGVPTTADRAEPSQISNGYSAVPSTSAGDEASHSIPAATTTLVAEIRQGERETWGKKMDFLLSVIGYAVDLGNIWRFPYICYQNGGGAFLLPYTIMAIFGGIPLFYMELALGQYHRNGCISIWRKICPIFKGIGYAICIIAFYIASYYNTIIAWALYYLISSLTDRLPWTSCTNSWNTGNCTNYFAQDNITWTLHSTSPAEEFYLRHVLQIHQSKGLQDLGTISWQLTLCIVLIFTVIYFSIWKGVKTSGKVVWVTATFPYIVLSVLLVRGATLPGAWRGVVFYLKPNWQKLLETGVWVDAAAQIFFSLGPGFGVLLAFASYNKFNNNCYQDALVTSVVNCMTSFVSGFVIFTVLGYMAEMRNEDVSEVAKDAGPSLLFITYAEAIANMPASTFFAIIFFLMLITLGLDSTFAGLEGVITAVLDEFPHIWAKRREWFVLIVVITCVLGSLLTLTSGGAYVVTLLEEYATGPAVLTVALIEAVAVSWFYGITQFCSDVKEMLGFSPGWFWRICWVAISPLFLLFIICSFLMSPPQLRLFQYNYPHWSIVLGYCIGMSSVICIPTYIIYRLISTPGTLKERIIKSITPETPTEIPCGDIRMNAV

[2] = molecular target: T3, cloned human 5-HT1A receptors (Homo sapiens, UniProt P08908); assay: 35S-GTPγS binding assay, 5-HT1A function; format: biochemical; conditions: for IC50: antagonist potency, reversal of 8-OH-DPAT; for EC50: agonist potency
T3 construct: expressed in transfected cells
T3 sequence (P08908 1-422): T1 sequence (P08908 1-422)

5-HT1A receptor [3] = molecular target: T1, 5-HT1A receptor; assay: cAMP accumulation assay, 5-HT1A function; format: cell-based; conditions: for IC50: cells marked IC50 (antagonist); for EC50: cells marked EC50 (agonist)
[4] = read-out: 5-HT1A Receptor Affinity Ki
[5] = read-out: 5-HT Transporter Affinity Ki
[6] = read-out: 5-HT1A Function GTPγS IC50
[7] = maximum inhibitory effect, in brackets after IC50, read-out: 5-HT1A Function GTPγS (Imax)
[8] = read-out: 5-HT1A Function cAMP IC50
[9] = in brackets after EC50 or IC50, read-out: 5-HT1A Function cAMP (Emax)
[10] = maximum stimulatory effect, in brackets after EC50, read-out: 5-HT1A Function GTPγS (Emax)

Row | EC50 [2] [µM] | Emax [2, 10] [%] | EC50 (5-HT1A receptor [3]) [µM] | SMILES | Ki (5-HT1A receptor [1]; [4]) [nM] | Ki (serotonin transporter; [5]) [nM] | IC50 [2, 6] [nM] | Emax [2, 7] [%] | IC50 (5-HT1A receptor [3]; [8]) [nM] | Emax (5-HT1A receptor [3]; [9]) [%] | 5-HT1A Function GTPγS (Imax) ([2]; maximum inhibitory effect, in brackets after IC50) [%] | 5-HT1A Function cAMP (Emax) (5-HT1A receptor [3]; in brackets after EC50 or IC50) [%] | Emax (5-HT1A receptor [3]; read-out: 5-HT1A Function cAMP (Emax), in brackets after EC50 or IC50) [%] | Ki (5-HT1A receptor [1]; 5-HT1A Receptor Affinity Ki (nM)) [nM] | Ki (serotonin transporter; 5-HT Transporter Affinity Ki (nM)) [nM] | IC50 ([2]; 5-HT1A Function GTPγS IC50 (nM)) [nM] | IC50 (5-HT1A receptor [3]; 5-HT1A Function cAMP IC50 (nM)) [nM]
1 | – | – | – | NC(=O)c1ccc(F)c2c1CC(N(CCCc1c[nH]c3cc(F)ccc13)CC1CC1)CO2 (centres unmarked) [Compound 52a, 3-{(cyclopropylmethyl)[3-(6-fluoro-1H-indol-3-yl)propyl]amino}-8-fluorochromane-5-carboxamide] | 2.37 | 163 | 983 | 90 | 118 | 0 | – | – | – | – | – | – | –
2 | – | – | – | NC(=O)c1ccc(F)c2c1CC(N(CCCc1c[nH]c3cc(F)ccc13)C1CCC1)CO2 (centres unmarked) [Compound 53, 3-{cyclobutyl[3-(6-fluoro-1H-indol-3-yl)propyl]amino}-8-fluorochromane-5-carboxamide] | 5.02 | 237 | 512 | 100 | 486 | 0 | – | – | – | – | – | – | –
3 | – | – | – | COC(=O)c1ccc(F)c2c1CC(N(CCCc1c[nH]c3ccc(F)cc13)C1CCC1)CO2 (centres unmarked) [Compound 55, Methyl 3-{cyclobutyl[3-(5-fluoro-1H-indol-3-yl)propyl]amino}-8-fluorochromane-5-carboxylate] | 73.8 | 161 | – | – | – | – | 62 | 0 | – | – | – | – | –
4 | 0.247 | 89 | 0.0871 | COC(=O)c1ccc(F)c2c1CC(NCCCCc1c[nH]c3ccc(F)cc13)CO2 (centres unmarked) [Compound 57, Methyl 8-fluoro-3-{[4-(5-fluoro-1H-indol-3-yl)butyl]amino}chromane-5-carboxylate] | 14.1 | 4.69 | – | – | – | 91.5 | – | – | – | – | – | – | –
5 | 1.75 | 96 | 0.337 | COC(=O)c1ccc(F)c2c1C[C@H](NCCCCc1c[nH]c3ccc(F)cc13)CO2 [Compound 57a, Methyl (3S)-8-fluoro-3-{[4-(5-fluoro-1H-indol-3-yl)butyl]amino}chromane-5-carboxylate] | 113 | 4.21 | – | – | – | 81 | – | – | – | – | – | – | –
6 | 0.641 | 100 | 0.18 | COC(=O)c1ccc(F)c2c1C[C@@H](NCCCCc1c[nH]c3ccc(F)cc13)CO2 [Compound 57b, methyl (3R)-8-fluoro-3-{[4-(5-fluoro-1H-indol-3-yl)butyl]amino}chromane-5-carboxylate] | 19.4 | 12.2 | – | – | – | 93 | – | – | – | – | – | – | –
7 | – | – | – | CNC(=O)c1ccc(F)c2c1CC(N(CCCc1c[nH]c3ccc(F)cc13)C1CCC1)CO2 (centres unmarked) [Compound 59, 3-{cyclobutyl[3-(5-fluoro-1H-indol-3-yl)propyl]amino}-8-fluoro-N-methylchromane-5-carboxamide] | 5.35 | 5.05 | 812 | 100 | 166 | 0 | – | – | – | – | – | – | –
8 | – | – | – | CCNC(=O)c1ccc(F)c2c1CC(N(CCCc1c[nH]c3ccc(F)cc13)C1CCC1)CO2 (centres unmarked) [Compound 60, 3-{cyclobutyl[3-(5-fluoro-1H-indol-3-yl)propyl]amino}-N-ethyl-8-fluorochromane-5-carboxamide] | 17.8 | 4.86 | 1400 | 100 | 116 | 0 | – | – | – | – | – | – | –
9 | – | – | – | CCCNC(=O)c1ccc(F)c2c1CC(N(CCCc1c[nH]c3ccc(F)cc13)C1CCC1)CO2 (centres unmarked) [Compound 61, 3-{cyclobutyl[3-(5-fluoro-1H-indol-3-yl)propyl]amino}-8-fluoro-N-propylchromane-5-carboxamide] | 195 | 2.4 | 800 | – | 593 | – | – | – | 0 | – | – | – | –
10 | – | – | – | CC(C)NC(=O)c1ccc(F)c2c1CC(N(CCCc1c[nH]c3ccc(F)cc13)C1CCC1)CO2 (centres unmarked) [Compound 63, 3-{cyclobutyl[3-(5-fluoro-1H-indol-3-yl)propyl]amino}-8-fluoro-N-isopropylchromane-5-carboxamide] | 46.1 | 3.56 | 2170 | 76 | 449 | 0 | – | – | – | – | – | – | –
11 | – | – | – | O=C(NC1CC1)c1ccc(F)c2c1CC(N(CCCc1c[nH]c3ccc(F)cc13)C1CCC1)CO2 (centres unmarked) [Compound 64, 3-{cyclobutyl[3-(5-fluoro-1H-indol-3-yl)propyl]amino}-N-cyclopropyl-8-fluorochromane-5-carboxamide] | 19.2 | 4.89 | 395 | 90 | 288 | 0 | – | – | – | – | – | – | –
12 | – | – | – | O=C(NC1CCC1)c1ccc(F)c2c1CC(N(CCCc1c[nH]c3ccc(F)cc13)C1CCC1)CO2 (centres unmarked) [Compound 65, N-cyclobutyl-3-{cyclobutyl[3-(5-fluoro-1H-indol-3-yl)propyl]amino}-8-fluorochromane-5-carboxamide] | 214 | 3.98 | 91.5 | 48 | 358 | 0 | – | – | – | – | – | – | –
13 | – | – | – | CCCCN(CCCc1c[nH]c2ccc(F)cc12)C1COc2c(F)ccc(C(N)=O)c2C1 (centres unmarked) [Compound 72, 3-{butyl[3-(5-fluoro-1H-indol-3-yl)propyl]amino}-8-fluorochromane-5-carboxamide] | 38.8 | 52.5 | 3250 | 43 | – | 0 | – | – | – | – | – | – | –
14 | – | – | – | CN(C)C(=O)c1ccc(F)c2c1CC(N(CCCc1c[nH]c3ccc(F)cc13)C1CCC1)CO2 (centres unmarked) [Compound 73, 3-{cyclobutyl[3-(5-fluoro-1H-indol-3-yl)propyl]amino}-8-fluoro-N,N-dimethylchromane-5-carboxamide] | 372 | 28.8 | 5730 | 40 | 155 | 0 | – | – | – | – | – | – | –
15 | – | – | – | CCN(CCc1c[nH]c2ccc(F)cc12)C1COc2c(F)ccc(C(N)=O)c2C1 (centres unmarked) [Compound 76, 3-{ethyl[2-(5-fluoro-1H-indol-3-yl)ethyl]amino}-8-fluorochromane-5-carboxamide] | – | – | – | 68 | – | 0 | – | – | – | 31.3 | 52 | 470 | 68.2
16 | – | – | – | CCCN(CCc1c[nH]c2ccc(F)cc12)C1COc2c(F)ccc(C(N)=O)c2C1 (centres unmarked) [Compound 77, 8-fluoro-3-[[2-(5-fluoro-1H-indol-3-yl)ethyl](propyl)amino]chromane-5-carboxamide] | 18 | 60.5 | 2570 | 100 | 68.3 | 0 | – | – | – | – | – | – | –
17 | – | – | – | NC(=O)c1ccc(F)c2c1CC(N(CCc1c[nH]c3ccc(F)cc13)CC1CC1)CO2 (centres unmarked) [Compound 78, 3-{(cyclopropylmethyl)[2-(5-fluoro-1H-indol-3-yl)ethyl]amino}-8-fluorochromane-5-carboxamide] | 6.6 | 83 | 384 | 100 | 97.1 | 0 | – | – | – | – | – | – | –
18 | – | – | – | CCN(CCCCc1c[nH]c2ccc(F)cc12)C1COc2c(F)ccc(C(N)=O)c2C1 (centres unmarked) [Compound 80, 3-{ethyl[4-(5-fluoro-1H-indol-3-yl)butyl]amino}-8-fluorochromane-5-carboxamide] | 312 | 0.15 | 1000 | 100 | 1370 | 0 | – | – | – | – | – | – | –
19 | – | – | – | CCCN(CCCCc1c[nH]c2ccc(F)cc12)C1COc2c(F)ccc(C(N)=O)c2C1 (centres unmarked) [Compound 81, 8-fluoro-3-[[4-(5-fluoro-1H-indol-3-yl)butyl](propyl)amino]chromane-5-carboxamide] | 4.64 | 6.15 | 775 | 100 | 125 | 0 | – | – | – | – | – | – | –
20 | – | – | – | NC(=O)c1ccc(F)c2c1CC(N(CCCCc1c[nH]c3ccc(F)cc13)CC1CC1)CO2 (centres unmarked) [Compound 82, 3-{(cyclopropylmethyl)[4-(5-fluoro-1H-indol-3-yl)butyl]amino}-8-fluorochromane-5-carboxamide] | 1.64 | 3.51 | 162 | 100 | 51.1 | 0 | – | – | – | – | – | – | –
21 | – | – | – | NC(=O)c1ccc(F)c2c1CC(N(CCCCc1c[nH]c3ccc(F)cc13)C1CCC1)CO2 (centres unmarked) [Compound 83, 3-{cyclobutyl[4-(5-fluoro-1H-indol-3-yl)butyl]amino}-8-fluorochromane-5-carboxamide] | 4.8 | 14.6 | 351 | 100 | 23.6 | 0 | – | – | – | – | – | – | –
